Source: the supplement of paper PMC9763283
± gives the standard deviation of the averaged measurements.

Columns and labels:
Assay in all cases: area under growth-rate inhibition curve (AUC GRI) (dimensionless (GR-based AUC)); higher = less growth inhibition
Details in all cases: exposure time: 72 h; concentrations: 0.1, 1, 10 uM
[1] = test system: SKBR3-P
In short: (§1)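 The area under the growth-rate inhibition curve was measured in six breast cancer cell line models, covering triple-negative lines and HER2+ lines, both parental and resistant to a two-drug combination. Cells were exposed to compound at 0.1, 1 or 10 µM for 72 h, fixed in 4% paraformaldehyde, and nuclei were stained with Hoechst 33342 or DAPI for imaging and counting. Day 0 plates, untreated Day 3 plates and DMSO controls served to correct growth across 2 biological replicates.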

[2] = test system: BT474-LTR
In short: as §1

[3] = test system: SKBR3-LTR
In short: as §1

[4] = test system: MDA-MB-231
In short: as §1

[5] = test system: BT474-P
In short: as §1

[6] = test system: MDA-MB-468
In short: as §1

SMILES | area under growth-rate inhibition curve [1] | area under growth-rate inhibition curve [2] | area under growth-rate inhibition curve [3] | area under growth-rate inhibition curve [4] | area under growth-rate inhibition curve [5] | area under growth-rate inhibition curve [6]
CCc1cc2c(cc1CC)CC(NC[C@H](O)c1ccc(O)c3[nH]c(=O)ccc13)C2.O=C(O)/C=C\C(=O)O [Indacaterol Maleate] | 0.955 | 1 | 1.01 | 0.903 | 0.978 | 0.93
CCCCC1=NC2(CCCC2)C(=O)N1Cc1ccc(-c2ccccc2-c2nn[nH]n2)cc1 [Irbesartan] | 1.03 ± 0.019 | 1.063 ± 0.0091 | 1.04 ± 0.036 | 1.042 ± 0.002 | 1.032 ± 0.0013 | 1.04 ± 0.023
CC(C)NCC(O)c1ccc(O)c(O)c1.[Cl-].[H+] (stereo not given) [Isoprenaline HCl] | 0.995 | 1.08 | 1.03 | 1.05 | 1.04 | 1.04
COc1cc2c(cc1OC)CC(=O)N(CCCN(C)CC1Cc3cc(OC)c(OC)cc31)CC2.Cl (stereo not given) [Ivabradine HCl] | 1.03 | 1.04 | 1.07 | 1.01 | 1.02 | 1.01
CCc1ccc(OCc2ccccc2C(=O)Nc2ccc3nc(C)cc(N)c3c2)cc1.[Cl-].[H+] [JTC-801] | 0.778 | 0.744 | 0.8 | 0.713 | 0.751 | 0.718
CN1CCC(=C2c3ccccc3CC(=O)c3sccc32)CC1.O=C(O)/C=C/C(=O)O [Ketotifen Fumarate] | 1.01 | 1.07 | 1.1 | 0.939 | 1.02 | 1
N[C@@H](Cc1ccc(O)c(O)c1)C(=O)O [L-DOPA] | 1.03 | 1.04 | 1.05 | 1.05 | 0.987 | 1.05
Cc1c(C(=O)Nc2ccc(N3CC(C)OC(C)C3)nc2)cccc1-c1ccc(OC(F)(F)F)cc1 (stereo not given) [LDE225 (NVP-LDE225,Erismodegib)] | 0.981 | 1.04 | 1.03 | 0.921 | 0.909 | 0.915
CC(CCc1ccccc1)NCC(O)c1ccc(O)c(C(N)=O)c1.Cl (stereo not given) [Labetalol HCl] | 1.01 | 1.07 | 1.06 | 1.06 | 1.1 | 1.04
O=C(CS(=O)Cc1ccco1)NC/C=C\COc1cc(CN2CCCCC2)ccn1 (stereo not given) [Lafutidine] | 0.987 | 1.1 | 1.06 | 1.03 | 1.02 | 1.02
OC[C@H](O)CN1CCN(c2ccccc2)CC1 [Levodropropizine] | 1.02 | 0.995 | 0.975 | 0.999 | 1.01 | 1.03
CCN1CCCC1CNC(=O)c1cc(S(N)(=O)=O)ccc1OC (stereo not given) [Levosulpiride] | 1.01 | 1.06 | 1.05 | 1.01 | 1.02 | 1.03
CCN(CC)CC(=O)Nc1c(C)cccc1C [Lidocaine] | 1.03 | 1.11 | 1.08 | 1.03 | 1.04 | 1.05
NCCCC[C@H](N[C@@H](CCc1ccccc1)C(=O)O)C(=O)N1CCC[C@H]1C(=O)O.O.O [Lisinopril] | 1.02 | 1.1 | 1.08 | 1.01 | 1.06 | 1
CN(C)C(=O)C(CCN1CCC(O)(c2ccc(Cl)cc2)CC1)(c1ccccc1)c1ccccc1.[Cl-].[H+] [Loperamide HCl] | 0.943 | 0.94 | 1 | 1.03 | 0.882 | 0.911
C[C@H]1CNCCc2ccc(Cl)cc21.[Cl-].[H+] [Lorcaserin HCl] | 1.03 | 1.09 | 1.03 | 1.02 | 1.06 | 1.03
CN1CCN(C2=Nc3ccccc3Oc3ccc(Cl)cc32)CC1 [Loxapine] | 1.02 | 1.03 | 1.06 | 1.04 | 0.995 | 1.03
N#Cc1cc2cc(CN3CCC(Nc4ncnc5sc(CC(F)(F)F)cc45)CC3)ccc2[nH]1 [MI-136] | 0.895 | 0.906 | 1.01 | 0.931 | 0.833 | 0.834
C[C@]12N[C@H](Cc3ccccc31)c1ccccc12 [MK-801 (Dizocilpine)] | 0.998 | 1.09 | 1.06 | 1.03 | 1.03 | 1.05
Cc1cccc(C#Cc2ccccc2)n1 [MPEP] | 0.999 | 1.1 | 1.05 | 1.05 | 1.03 | 1.03
S=C=Nc1cccc(NC(=S)NCCCCNC(=S)Nc2cccc(N=C=S)c2)c1 [MRS 2578] | 1.02 | 1.08 | 1.07 | 1.02 | 1.02 | 1.03
CCCNS(=O)(=O)Nc1ncnc(OCCOc2ncc(Br)cn2)c1-c1ccc(Br)cc1 [Macitentan] | 1.02 | 1.01 | 1.02 | 1.02 | 0.957 | 1.02
CNCCCC12CCC(c3ccccc31)c1ccccc12.[Cl-].[H+] [Maprotiline HCl] | 0.982 | 1.02 | 1.02 | 0.967 | 0.984 | 0.96
Cc1cccc(C(C)c2c[nH]cn2)c1C.Cl (stereo not given) [Medetomidine HCl] | 1.03 | 0.982 | 0.995 | 1.01 | 0.995 | 1.02
CC(=O)O[C@]1(C(C)=O)CC[C@H]2[C@@H]3C[C@H](C)C4=CC(=O)CC[C@]4(C)[C@H]3CC[C@@]21C [Medroxyprogesterone acetate] | 0.953 | 1.02 | 1.01 | 1.03 | 0.945 | 1
